Reference: patent US10632089B2, “Tyrosinase activity inhibitor and external preparation for skin” (JO Cosmetics Co., Ltd., priority 2015, dated 2020)
Residue numbers refer to the chain shown, from its start. Counter-ions that a name gives are not always drawn. Like-named read-outs stand apart in the source and are kept apart here.

What was measured:
[1] = biological target: T1, tyrosinase (derived from mushrooms) (Agaricus bisporus, UniProt C7FF04); experiment: Test for evaluating inhibition of tyrosinase activity (DOPA substrate, absorbance at 475 nm); format: biochemical
T1 construct: purchased Sigma
T1 sequence (C7FF04 whole entry): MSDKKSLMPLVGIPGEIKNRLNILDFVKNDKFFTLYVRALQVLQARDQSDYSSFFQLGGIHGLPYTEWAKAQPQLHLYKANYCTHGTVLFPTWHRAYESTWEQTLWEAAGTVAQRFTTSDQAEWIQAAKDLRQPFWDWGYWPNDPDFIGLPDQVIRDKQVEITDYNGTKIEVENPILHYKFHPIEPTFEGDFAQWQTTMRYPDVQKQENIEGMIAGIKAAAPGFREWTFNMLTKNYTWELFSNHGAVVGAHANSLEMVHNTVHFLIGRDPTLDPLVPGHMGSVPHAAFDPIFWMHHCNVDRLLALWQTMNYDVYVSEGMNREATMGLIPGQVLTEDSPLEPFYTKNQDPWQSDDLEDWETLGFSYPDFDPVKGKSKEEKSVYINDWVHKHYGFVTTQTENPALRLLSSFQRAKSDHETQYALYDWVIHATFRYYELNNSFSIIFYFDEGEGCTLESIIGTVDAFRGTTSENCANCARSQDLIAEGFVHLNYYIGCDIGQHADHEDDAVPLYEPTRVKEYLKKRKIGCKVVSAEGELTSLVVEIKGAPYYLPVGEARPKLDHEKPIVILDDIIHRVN
Description: (§1) After 2 minutes of the addition, the test solution was subjected to measurement of absorbance at 475 nm. Thus-obtained absorbance value was defined as D1. As a control, the same measurement was conducted on a test solution in which each sample was replaced with purified water, and the obtained absorbance value was defined as D2. An inhibition rate of tyrosinase activity was calculated by the following formula.

[2] = test system: tyrosinase (derived from mushrooms); experiment: as above; format: biochemical; conditions: for Tyrosinase activity inhibition rate in the case of using both components/Sum of tyrosinase activity inhibition rate in the case of using each component alone: no second component; for Inhibition rate of tyrosinase activity in the case of conbining human manganese SOD/Inhibition rate of tyrosinase activity in the case without addition of human manganese SOD: (B-1) 0 unit/mL
Description: as §1

[3] = see paragraphs 0060, 0061 and 0072 of Patent Document 6; cited from earlier work

Molecule: OC[C@H]1O[C@@H](Oc2ccc(O)cc2)[C@H](O)[C@@H](O)[C@@H]1O [arbutin, reference compound]
- inhibition rate of tyrosinase activity ([1]; arbutin solely, 3.0% by mass): 71.3%

Molecule: O=C1O[C@H]([C@@H](O)CO)C(O)=C1O[C@H]1O[C@H](CO)[C@@H](O)[C@H](O)[C@H]1O [ascorbyl glucoside, 2-O-α-D-glucopyranosyl-L-ascorbic acid]
- inhibition rate of tyrosinase activity ([1]; ascorbic acid derivative (ascorbyl glucoside) solely, 2.0% by mass): 21.9%
- inhibition at 5000 µg/mL ([1]; ascorbyl glucoside solely, 5 mg/mL, read-out: Inhibition rate of tyrosinase activity (%)): 8.4%
- inhibition at 10000 µg/mL ([1]; ascorbyl glucoside solely, 10 mg/mL, read-out: Inhibition rate of tyrosinase activity (%)): 15.4%
- inhibition at 20000 µg/mL ([1]; ascorbyl glucoside solely, 20 mg/mL, read-out: Inhibition rate of tyrosinase activity (%)): 26.8%

Molecule: O=C1O[C@H]([C@@H](O)CO)C(O)=C1O [Ascorbic acid, ascorbic acid, reference compound]
- inhibition at 10 µg/mL ([1]; read-out: Inhibition rate of tyrosinase activity (%), (B) component only): 28.7%

Molecule: CCOC1=C(O)C(=O)O[C@@H]1[C@@H](O)CO [3-O-ethylascorbic acid, reference compound]
- inhibition at 2500 µg/mL ([1]; (B-2) component only, 2.5 mg/mL, read-out: Inhibition rate of tyrosinase activity (%), (B) component only): 29.9%

Molecule: O=C1O[C@H]([C@@H](O)CO)C([O-])=C1OP(=O)([O-])[O-].O=C1O[C@H]([C@@H](O)CO)C([O-])=C1OP(=O)([O-])[O-].[Mg+2].[Mg+2].[Mg+2] [Magnesium ascorbyl phosphate, magnesium ascorbyl phosphate, reference compound]
- Inhibition rate of tyrosinase activity (%), (B) component only ([1]; (B-2) component only, 5 mg/mL): 11.1%

Molecule: O=C(O)CCCCC1CCSS1 (stereo not drawn) [α-lipoic acid, 6,8-dithiooctanoic acid, reference compound]
- Inhibition rate of tyrosinase activity (%) ([1]; α-lipoic acid solely, 4.31 μg/mL): 0.7%
- Tyrosinase activity inhibition rate in the case of using both components/Sum of tyrosinase activity inhibition rate in the case of using each component alone ([2]; α-lipoic acid 4.31 μg/mL): 1.00

Molecule: Cc1ncc(CO)c(CO)c1O [Pyridoxine hydrochloride, pyridoxine hydrochloride, reference compound]
- inhibition at 5000 µg/mL ([1]; read-out: Inhibition rate of tyrosinase activity (%)): 42.9%

Molecule: O=C1O[C@H]([C@@H](O)CO)C([O-])=C1OP(=O)([O-])[O-].[Na+].[Na+].[Na+] [Sodium ascorbyl phosphate, sodium ascorbyl phosphate, reference compound]
- Inhibition rate of tyrosinase activity (%), (B) component only ([1]; (B-2) component only, 5 mg/mL): 15.6%

Molecule: zinc chelate compound of N-(6,8-dimercaptooctanoyl)-L-histidine sodium salt [histidine dithiooctanamide (Na/zinc)]
- Inhibition rate of tyrosinase activity (%) ([1]; histidine dithiooctanamide (Na/zinc) solely, 1.08 μg/mL (2.5 μM)): 13.2%
- Inhibition rate of tyrosinase activity (%) ([1]; histidine dithiooctanamide (Na/zinc) solely, 2.15 μg/mL (5 μM)): 25.3%
- Inhibition rate of tyrosinase activity (%) ([1]; histidine dithiooctanamide (Na/zinc) solely, 3.23 μg/mL (7.5 μM)): 53.6%
- Inhibition rate of tyrosinase activity (%) ([1]; histidine dithiooctanamide (Na/zinc) solely, 4.31 μg/mL (10 μM)): 68.9%
- Inhibition rate of tyrosinase activity in the case of conbining human manganese SOD/Inhibition rate of tyrosinase activity in the case without addition of human manganese SOD ([2]; (A) 1.08 μg/mL): 1.00
- Tyrosinase activity inhibition rate in the case of using both components/Sum of tyrosinase activity inhibition rate in the case of using each component alone ([2]; (A) 1.08 μg/mL): 1.00
- Inhibition rate of tyrosinase activity in the case of conbining human manganese SOD/Inhibition rate of tyrosinase activity in the case without addition of human manganese SOD ([2]; (A) 2.15 μg/mL): 1.00
- Tyrosinase activity inhibition rate in the case of using both components/Sum of tyrosinase activity inhibition rate in the case of using each component alone ([2]; (A) 2.15 μg/mL): 1.00
- Inhibition rate of tyrosinase activity in the case of conbining human manganese SOD/Inhibition rate of tyrosinase activity in the case without addition of human manganese SOD ([2]; (A) 3.23 μg/mL): 1.00
- Inhibition rate of tyrosinase activity in the case of conbining human manganese SOD/Inhibition rate of tyrosinase activity in the case without addition of human manganese SOD ([2]; (A) 4.31 μg/mL): 1.00

Molecule: O=C1O[C@H]([C@@H](O)CO)C([O-])=C1OS(=O)(=O)[O-].[Na+].[Na+] [Disodium ascorbyl sulfate, reference compound]
- Inhibition rate of tyrosinase activity (%), (B) component only ([1]; (B-2) component only, 2.5 mg/mL): 40.5%

B1: MHS:Mn-SOD: human mutant manganese SOD, third amino acid from N-terminus serine substituted with arginine (Patent Document 6) (protein, UniProt P04179 25-222, looked up, variant S3R)
Superoxide dismutase [Mn], …: KHRLPDLPYDYGALEPHINAQIMQLHHSKHHAAYVNNLNVTEEKYQEALAKGDVTAQIALQPALKFNGGGHINHSIFWTNLSPNGGGEPKGELLEAIKRDFGSFDKFKEKLTAASVGVQGSGWGWLGFNKERGHLQIAACPNQDPLQGTTGLIPLLGIDVWEHAYYLQYKNVRPDYLKAIWNVINWENVTERYMACKK
- isoelectric point [3]: about 8.2

B2: human manganese SOD: human manganese superoxide dismutase, "yeast extract (SOD)" commercially available from Biox Technologies, 3,000 units/mL (protein, UniProt P04179 25-222, looked up)
Superoxide dismutase [Mn], …: B1 Superoxide dismutase [Mn], … with R3S
- Inhibition rate of tyrosinase activity (%) ([1]; human manganese SOD solely, 3 units/mL): 4.53%
- Inhibition rate of tyrosinase activity (%) ([1]; human manganese SOD solely, 3 units/mL, listed as (B-1) component): 4.5%
- Inhibition rate of tyrosinase activity (%) ([1]; human manganese SOD solely, 15 units/mL): 3.74%
- Inhibition rate of tyrosinase activity (%) ([1]; human manganese SOD solely, 15 units/mL, listed as (B-1) component): 3.7%
- Inhibition rate of tyrosinase activity (%) ([1]; human manganese SOD solely, 150 units/mL): 4.66%
- Inhibition rate of tyrosinase activity (%) ([1]; human manganese SOD solely, 150 units/mL, listed as (B-1) component): 4.7%
